The target in one test is T1, JAK2 (a.a. 828-1132) (Homo sapiens, UniProt O60674).
T1 construct: JAK2 (a.a. 828-1132); His tag (N); made in house; host or cells: insect cells (baculovirus)
Nature of the test: In vitro JAK kinase assay (HTRF), JAK2. It is filed as biochemical. Particulars: catalytic domain, ATP 30 μM, 500 nM peptide, room temperature 1 hr. How it is done:
(§1) Compounds herein were tested for inhibitory activity of JAK targets according to the following in vitro assay described in Park et al., Analytical Biochemistry 1999, 269, 94-104. The catalytic domains of human JAK1 (a.a. 837-1142), JAK2 (a.a. 828-1132) and JAK3 (a.a. 781-1124) with an N-terminal His tag were expressed using baculovirus in insect cells and purified. The catalytic activity of JAK1, JAK2 or JAK3 was assayed by measuring the phosphorylation of a biotinylated peptide. The phosphorylated peptide was detected by homogenous time resolved fluorescence (HTRF). IC50s of compounds were measured for each kinase in the reactions that contain the enzyme, ATP and 500 nM peptide in 50 mM Tris (pH 7.8) buffer with 100 mM NaCl, 5 mM DTT, and 0.1 mg/mL (0.01%) BSA. The ATP concentration in the reactions was 90 μM for JAK1, 30 μM for JAK2 and 3 μM for JAK3. Reactions were carried out at room temperature for 1 hr and then stopped with 20 μL 45 mM EDTA, 300 nM SA-APC, 6 nM Eu-Py20 in assay buffer (Perkin Elmer, Boston, Mass.). Binding to the Europium labeled antibody took place for 40 minutes and HTRF signal was measured on a Fusion plate reader (Perkin Elmer, Boston, Mass.).

Test [1] addresses T2, human JAK1 (a.a. 837-1142) (Homo sapiens, UniProt P23458).
T2 construct: human JAK1 (a.a. 837-1142); His tag (N); made in house; host or cells: insect cells (baculovirus)
Nature of the test: In vitro JAK kinase assay (HTRF), JAK1. It is filed as biochemical. Particulars: catalytic domain, ATP 90 μM, 500 nM peptide, room temperature 1 hr. How it is done: as §1

Counter-ions that a name gives are not always drawn.

T1 sequence (O60674 828-1132): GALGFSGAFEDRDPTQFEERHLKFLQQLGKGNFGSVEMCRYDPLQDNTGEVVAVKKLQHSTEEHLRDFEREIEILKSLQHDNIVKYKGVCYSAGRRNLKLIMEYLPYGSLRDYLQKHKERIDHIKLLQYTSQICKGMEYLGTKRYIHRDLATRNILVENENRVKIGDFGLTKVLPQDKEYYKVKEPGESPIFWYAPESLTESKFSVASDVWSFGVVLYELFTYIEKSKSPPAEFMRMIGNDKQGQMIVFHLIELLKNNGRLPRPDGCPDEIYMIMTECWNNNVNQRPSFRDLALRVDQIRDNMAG
T2 sequence (P23458 849-1154): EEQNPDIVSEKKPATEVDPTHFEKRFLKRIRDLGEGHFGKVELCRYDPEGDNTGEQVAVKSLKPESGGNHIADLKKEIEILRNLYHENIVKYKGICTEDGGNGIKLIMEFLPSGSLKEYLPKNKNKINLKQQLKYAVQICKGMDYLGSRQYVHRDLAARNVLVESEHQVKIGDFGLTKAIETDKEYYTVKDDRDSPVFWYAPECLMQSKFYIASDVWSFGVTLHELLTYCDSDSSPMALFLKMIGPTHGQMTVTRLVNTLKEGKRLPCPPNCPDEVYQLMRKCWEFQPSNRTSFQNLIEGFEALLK

As for `N#CCC(C1CCC1)n1cc(-c2ncnc3[nH]ccc23)cn1` (single isomer, unassigned) [Example 1, (R or S)-3-Cyclobutyl-3-[4-(7H-pyrrolo[2,3-d]pyrimidin-4-yl)-1H-pyrazol-1-yl]propanenitrile], the IC50 was under 1 nM on JAK2 (a.a. 828-1132) and under 2 nM in test [1].

Turning to `C[C@H]1C[C@H](C(CC#N)n2cc(-c3ncnc4[nH]ccc34)cn2)C1` (single isomer, unassigned) [Example 2, (3R or 3S)-3-(4-(7H-Pyrrolo[2,3-d]pyrimidin-4-yl)-1H-pyrazol-1-yl)-3-((trans)-3-methylcyclobutyl)propanenitrile phosphoric acid salt], the IC50 is under 1 nM against JAK2 (a.a. 828-1132) and under 2 nM in test [1].

For the molecule `C[C@H]1C[C@@H](C(CC#N)n2cc(-c3ncnc4[nH]ccc34)cn2)C1` (single isomer, unassigned) [Example 3, (3R or 3S)-3-(4-(7H-Pyrrolo[2,3-d]pyrimidin-4-yl)-1H-pyrazol-1-yl)-3-((cis)-3-methylcyclobutyl)-propanenitrile phosphoric acid salt], the half-maximal inhibitory concentration (IC50) is under 1 nM on JAK2 (a.a. 828-1132) and under 2 nM in test [1].

Values taken from patent US20150087662A1, “CYCLOBUTANE AND METHYLCYCLOBUTANE DERIVATIVES AS JANUS KINASE INHIBITORS” (Incyte Corporation, priority 2010, published 2015).
